Results as given in publication PMC5645319, “An Integrin-Targeted, Highly Diffusive Construct for Photodynamic Therapy” (Scientific Reports, 2017).

Columns and labels:
monolayer OVCAR5 cells [1] = test: Photodynamic therapy and dark toxicity in monolayer cultures, MTT viability assay
Procedure: (§4) The MTT assay was used to evaluate cellular viability of PDT-treated monolayer cultures. […] The MTT reagent (Thiazolyl Blue Tetrazolium Bromide, Sigma) was administered to cells in warmed complete cell culture media at a concentration of 1 mg/mL. Growth medium was gently aspirated from wells so as not to remove weakly adhered cells and was replaced with MTT media solution (160 µL). Cells were then returned cells to the 37 °C incubator and kept under 5% CO2 for 60 minutes. After incubating cells, the MTT treatment solution was carefully and completely aspirated from wells, with DMSO then added (180 µL) to extract cellular Formazan. After incubating samples for 15 minutes at room temperature while periodically rocking plates to completely and uniformly dissolve Formazan crystals, Formazan-containing DMSO was aliquoted (50 µL volumes from each well in triplicate) into a 96-well plate alongside wells containing an equal volume of DMSO to be used for background subtraction. The absorbance of Formazan at 540 nm was then measured using a SpectraMax M5 (Molecular Devices) plate reader.
(§5) After averaging measured absorbance values, background-subtraction was carried out and the standard deviation of the experimental values was calculated. For each individual sample group or treatment condition, the background-subtracted average absorbance value was normalized to that of the untreated (“NT”) control group to obtain the normalized cellular viabilities. […] All measurements were performed in triplicate to ensure high quality data collection.
(§6) All steps involving the manipulation of photosensitizers were carried out under subdued lighting to the extent that it was possible to avoid artifacts from unintentional photodynamic effects. Wells within each dish were spaced far apart from each other to ensure minimal light administration cross-talk. All manipulations of media or other culture liquids were done manually, specifically avoiding the use of vacuum aspiration techniques to avoid the unintended removal of weakly adhered cells before, during or after therapy.
(§7) Sequential blocking of integrins with cRGD peptide was achieved by administering a 10-fold excess of cRGD peptide (50 µM) in warmed DPBS to cells and incubating for a duration of 3 hours at 37 °C in a 5% CO2 incubator. Blocking solution was removed and replaced with photosensitizer-containing treatment media without performing a washing step and cells were immediately returned to the incubator for the appropriate time.
(§8) Concentrated stock solutions of photosensitizers were diluted in and administered to cells in warmed complete cell culture media. […] Integrin-dependent PDT efficacy was evaluated using 10 µM photosensitizer doses. The comparison of PEG-dependent enhancement in PDT was evaluated using 5 µM photosensitizer doses. […]

[2] = Absorption spectroscopy to assess photosensitizer aggregation in water; assay type: physicochemical; conditions: for Aggregation in water by absorption spectrum: construct at 87.8 µM, compared with EtNBS in acidified methanol
Text: Spectra were acquired using a home-built spectrometer that made use of a white light source for absorption measurements and a 655 nm LED for EtNBS excitation. Transmitted or absorbed light was collected and fiber-delivered to a QE65000 spectrometer (Ocean Optics) for spectral acquisition.

OVCAR5 cells = test: Uptake in monolayer cell cultures, confocal fluorescence microscopy; assay type: cell-based
Procedure: (§1) All imaging experiments were carried out on an Olympus FV1000 confocal microscope with a stage-top incubator (Prior) to maintain humidity, 37 °C temperature, and 5% CO2 during imaging sessions. For each sample, imaging was restricted to 15 minutes from the time cells were removed from the incubator to avoid any artifacts related to cell death. Image acquisition parameters were chosen which captured signal from both samples/cell lines without any saturation of signal and were kept uniform between samples to allow for direct one-to-one comparison of signal. These parameters were also used to image cells treated with known concentrations of EtNBS, to allow for relative comparison of uptake against known references. For every imaging experiment and conditions, a minimum of three areas of interests were collected and analyzed.
(§2) Stably transfected OVCAR5 cells overexpressing the alpha5 integrin as well as wild-type OVCAR5 cells were plated as described above in glass-bottom 35 mm culture dishes (P35G-0.170-14-C, MatTek) at a density of 200,000 cells per dish 24 hours prior to the start of experiments. Cells were administered the photosensitizer at a concentration of 10 µM in warmed complete cell culture medium and incubated for 3 hours in a 37 °C incubator under 5% CO2. […]

monolayer OVCAR5 cells [3] = conditions: 5 µM concentration, no light; 'has been observed', no reference given; cited from earlier work
Procedure: To assess the ability of the construct to carry out PDT, monolayer OVCAR5 cells were incubated with the EtNBS construct and illuminated with 660 nm light (Fig. 7). […] This is true even though the construct is more efficient in the generation of reactive radical species. This difference in light dose between the free molecule and its targeted construct, however, is not entirely surprising; similar higher light doses have been found necessary in immunoconjugates based on the benzoporphyrin der ...

[4] = Reactive oxygen species generation, singlet oxygen sensor green (SOSG) fluorogenic assay
Procedure: (§3) HPF (H36004) and SOSG (S36002) were purchased from Life Technologies and were used as directed by the manufacturer’s protocol. Working solutions were prepared at 10 µM in DPBS or 5 µM TRIS buffer (pH 7.5) for HPF and SOSG, respectively, using 10 µM concentrations of the appropriate photosensitizer. All sample irradiation was carried out using 660 nm-centered LED-generated light (M660L3, Thorlabs) at an irradiance of 100 mW/cm^2. Irradiation of 80 µL sample volumes was carried out in clear plastic 96-well plates, with the emission of the ROS probes measured with a plate reader (SpectraMax m5, Molecular Devices). Experiments were performed in triplicate and experimental values (N = 3) were averaged and background-subtraction was performed.

[5] = Reactive oxygen species generation, hydroxyphenyl fluorescein (HPF) fluorogenic assay; conditions: 10 µM photosensitizer, 660 nm
Procedure: as §3

[6] = system: OVCAR5 cell line engineered to ectopically overexpress the α5 integrin; test: Integrin-dependent uptake in monolayer culture, confocal fluorescence microscopy; assay type: cell-based
Procedure: as §1, §2

monolayer OVCAR5 cells [7] = system: monolayer OVCAR5 cells
Procedure: as §4, §5, §6, §7, §8

Molecule | Toxicity of cRGD administered solely to cells (monolayer OVCAR5 cells [1]; cRGD only, not exposed to light, MTT) | Aggregation in water by absorption spectrum (Supplementary Fig. 3) ([2]; 5 µM concentration) | Aggregation in water by absorption spectrum [2] | Photosensitizer uptake of free EtNBS relative to the construct (OVCAR5 cells; relative comparison) | Drop in viability due solely to dark toxicity (monolayer OVCAR5 cells [3]) | ROS generation measured by SOSG versus free EtNBS ([4]; 10 µM photosensitizer, 660 nm, 100 mW/cm^2, all light doses tested (5–40 J/cm^2), triplicate) | Yield of singlet oxygen (SOSG) relative to free EtNBS ([4]; equimolar 10 µM photosensitizer, 5 µM SOSG in TRIS buffer pH 7.5, 660 nm LED, 100 mW/cm^2, highest light dose (40 J/cm^2), mean of triplicate) | Enhancement of HPF fluorescence versus free EtNBS ([5]; 10 µM HPF in DPBS, 100 mW/cm^2, dose of 50 J/cm^2, triplicate) | Photodynamic activity measured by HPF versus free EtNBS ([5]; 100 mW/cm^2, all light doses (5–100 J/cm^2), triplicate) | Uptake in alpha5 integrin overexpressing OVCAR5 versus OVCAR5 ([6]; 10 µM, 3 hours incubation, 37 °C, fluorescence excited at 635 nm, 670 nm emission) | Uptake of PEGylated versus unPEGylated construct in overexpressing cells ([6]; alpha5 integrin overexpressing OVCAR5 cells) | Photosensitizer concentration within the cells relative to administered free EtNBS (OVCAR5 cells; EtNBS references at 250 nM and 500 nM) | Toxicity without light, small scale experiments (monolayer OVCAR5 cells [7]) | Reduction in viability after PDT (monolayer OVCAR5 cells [1]; 5 µM photosensitizer, 3 hour incubation, 660 nm at 100 mW/cm^2, 100 J/cm^2 light dose, MTT 24 hours post-treatment, triplicate) | PDT effect after pre-incubation with free cRGD (monolayer OVCAR5 cells [1]; pre-treated with cRGD 50 µM (tenfold molar excess) 3 hours, then construct 5 µM, 100 J/cm^2 at 660 nm, MTT)
N=C(N)NCCC[C@@H]1NC(=O)[C@H](CCCCN)NC(=O)[C@@H](Cc2ccccc2)NC(=O)[C@H](CC(=O)O)NC(=O)CNC1=O [cRGD, cRGDfK, reference compound] | did not result in any measured toxicity | – | – | – | – | – | – | – | – | – | – | – | – | – | –
CCNc1cc2sc3cc(=[N+](CC)CC)ccc-3nc2c2ccccc12.[Cl-] [EtNBS] | – | displays a blue shift | formation of aggregates distorts the spectrum | up to two orders of magnitude greater uptake | 70% | – | – | – | – | – | – | – | – | – | –
DOTA-Lys(ETNBS)-Lys(PEG5K)-β-Ala-Cys(DBCO-PEG4-cRGD) (head to tail) [EtNBS construct] | – | – | does not show aggregation | – | – | greater than that of free EtNBS | ~100% | two-fold enhancement | considerably greater photodynamic activity | significantly greater | take up more | many times lower | equally harmless | 60% | protected the cells against PDT
